Results: patent publication US20150087657A1, “MULTICOMPONENT CRYSTALLINE SYSTEM OF VORICONAZOLE WITH FUMARIC ACID” (BASF SE, priority 2011, published 2015)
Converted amounts (≈) assume the structure as drawn.

Test: Solubility determination of vrx and vrx-co-crystals in water
Assay type: physicochemical
Conditions: 37° C.
Experimental: Solubility determinations of the vrx (free drug substance), the vrx-fumaric acid co-crystal and the vrx-L-tartaric acid co-crystal described in the below comparative example are carried out as follows. To 20 mg of a solid sample, 5.0 ml water is added and the mixture is placed on a laboratory shaker at 500 rpm at 37° C. After 24 hours, a small sample of about 1.0 ml is recovered with a syringe and filtered through a 0.1 micrometer PVDF Millipore filtration unit. This sample is appropriately diluted and the concentration is determined by HPLC.

CC(c1ncncc1F)C(O)(Cn1cncn1)c1ccc(F)cc1F.O=C(O)C=CC(=O)O (stereo not drawn) [Co-crystal with fumaric acid]
aqueous solubility higher than the free drug substance and the L-tartaric acid co-crystal (24 h, relative to table 4 comparators): about 30% | Solubility of Voriconazole (equilibration time 24 h, 20 mg solid in 5.0 ml, HPLC, value refers to Voriconazole): 1300 µg/mL

C[C@@H](c1ncncc1F)[C@](O)(Cn1cncn1)c1ccc(F)cc1F [Voriconazole free drug, (2R,3S)-2-(2,4-difluorophenyl)-3-(5-fluoropyrimidin-4-yl)-1-(1H-1,2,4-triazol-1-yl)butan-2-ol, reference compound]
solubility at 24 h (thermodynamic from solid, equilibration time 24 h, 20 mg solid in 5.0 ml, HPLC, value refers to Voriconazole): 1010 µg/mL (≈ 2890 µM)
